Results: patent publication US7556806B2, “Carbohydrate-based synthetic vaccines for HIV” (University of Maryland Biotechnology Institute, priority 2002, dated 2009)

System: MAb 2G12 binding to HIV-1IIIB gp120
Test: Competitive ELISA: inhibition of 2G12 binding to immobilized gp120 by carbohydrate antigens
Design: species or system human
Settings: for Relative Affinity, Molar basis / Relative Affinity, Valency-corrected: Table 1; for Relative Affinity, Molar basis: from IC50, relative to Man9GlcNAc2Asn = 1.0; for Relative Affinity, Valency-corrected: from IC50, relative to Man9GlcNAc2Asn = 1.0, per oligosaccharide subunit; for affinity for 2G12 binding, Man9GlcNAc compared with Man9GlcNAc2Asn: result in words
Protocol: Competitive ELISAs were performed to determine the relative inhibition potency of various carbohydrate antigens against the binding of 2G12 to gp120. Microtiter plates were coated with human cell line 293-expressed HIV-1IIIB gp120 (100 ng/ml) overnight at 4° C. After washing, non-specific binding was blocked with 5% BSA in PBS for 1 h at room temperature. The plates were then washed three times with 0.1% Tween-20/PBS. Serial dilutions (1:2) of various carbohydrate antigens were mixed with an equal volume of MAb 2G12 (fixed final concentration of 5 ng/ml) and added to the plates. The plates were incubated for 1 h at 37° C. and washed with washing buffer. To the plates was added a 100-μl solution of 1:3000 diluted horseradish peroxidase-conjugated goat anti-human IgG in 0.5% BSA/PBS. After incubation for 1 h at 37° C., the plates were washed again and a 100-μl solution of 3,3′,5,5′-tetramethyl benzidine (TMB) was added. Color was allowed to develop for 5 min, and the color reaction was quenched through adding a 100-μl solution of 0.5 M H2SO4 to each well. The optical density was then measured at 450 nm.
The binding affinity of the high-mannose oligosaccharides was examined by competitive inhibition of 2G12 binding to immobilized gp120, as shown in FIG. 14.
The synthetic Man9-clusters were examined for competitive inhibition of 2G12 binding to immobilized gp120 (FIG. 16).

| Compound | Relative Affinity, Molar basis | Relative Affinity, Valency-corrected | affinity for 2G12 binding, Man9GlcNAc compared with Man9GlcNAc2Asn | fold more effective in inhibition of 2G12 binding than Man5GlcNAc (on a molar basis, versus Man5GlcNAc) | fold more effective in inhibition of 2G12 binding than Man6GlcNAc (on a molar basis, versus Man6GlcNAc) |
| --- | --- | --- | --- | --- | --- |
| CC(=O)N[C@H]1C(O)O[C@H](CO)[C@@H](O[C@@H]2O[C@H](CO[C@H]3O[C@H](CO[C@H]4O[C@H](CO)[C@@H](O)[C@H](O)[C@@H]4O)[C@@H](O)[C@H](O[C@H]4O[C@H](CO)[C@@H](O)[C@H](O)[C@@H]4O)[C@@H]3O)[C@@H](O)[C@H](O[C@H]3O[C@H](CO)[C@@H](O)[C@H](O)[C@@H]3O)[C@@H]2O)[C@@H]1O (stereo partly drawn) [Man5GlcNAc] | 0.004 | 0.004 | – | – | – |
| CC(=O)N[C@@H]1[C@@H](O)[C@H](O[C@@H]2O[C@H](CO)[C@@H](O[C@@H]3O[C@H](CO[C@H]4O[C@H](CO[C@H]5O[C@H](CO)[C@@H](O)[C@H](O)[C@@H]5O[C@H]5O[C@H](CO)[C@@H](O)[C@H](O)[C@@H]5O)[C@@H](O)[C@H](O[C@H]5O[C@H](CO)[C@@H](O)[C@H](O)[C@@H]5O[C@H]5O[C@H](CO)[C@@H](O)[C@H](O)[C@@H]5O)[C@@H]4O)[C@@H](O)[C@H](O[C@H]4O[C@H](CO)[C@@H](O)[C@H](O)[C@@H]4O[C@H]4O[C@H](CO)[C@@H](O)[C@H](O)[C@@H]4O[C@H]4O[C@H](CO)[C@@H](O)[C@H](O)[C@@H]4O)[C@@H]3O)[C@H](O)[C@H]2NC(C)=O)[C@@H](CO)O[C@H]1NC(=O)C[C@H](N)C(=O)O [Man9GlcNAc2Asn] | 1.0 | 1.0 | essentially the same affinity | – | – |
| CC(=O)N[C@H]1C(O)O[C@H](CO)[C@@H](O[C@@H]2O[C@H](CO[C@H]3O[C@H](CO[C@H]4O[C@H](CO)[C@@H](O)[C@H](O)[C@@H]4O[C@H]4O[C@H](CO)[C@@H](O)[C@H](O)[C@@H]4O)[C@@H](O)[C@H](O[C@H]4O[C@H](CO)[C@@H](O)[C@H](O)[C@@H]4O[C@H]4O[C@H](CO)[C@@H](O)[C@H](O)[C@@H]4O)[C@@H]3O)[C@@H](O)[C@H](O[C@H]3O[C@H](CO)[C@@H](O)[C@H](O)[C@@H]3O[C@H]3O[C@H](CO)[C@@H](O)[C@H](O)[C@@H]3O[C@H]3O[C@H](CO)[C@@H](O)[C@H](O)[C@@H]3O)[C@@H]2O)[C@@H]1O (stereo partly drawn) [Man9GlcNAc] | 0.84 | 0.84 | essentially the same affinity | 244 fold | 85 fold |
| Man6GlcNAc | 0.012 | 0.012 | – | – | – |
